Where “and” joins values, the source holds several entries; their conditions need not be identical. Equal entries are not always repeated. Where two headings read alike, the source gives them in different places.
Columns and labels:
Experiment in all cases: MTT assay for 7-day toxicity assay
Type in all cases: cell-based
[1] = test system: Colon HCT116 (MMR mutated); settings: Homo sapiens, HCT-116, 168 h, Colon HCT116 (MMR mutated); 7-day MTT; single determinations; read-out: GI50
Protocol: (§1) The cell culture techniques were carried out in a Class II microbiological safety cabinet which was swabbed with 70% IMS in distilled water before each use. Glioma cells were routinely cultured in Costar tissue culture flasks in RPMI 1640 liquid medium (containing 0.3 g/L L-glutamine and 2 g/L sodium bicarbonate) supplemented with 10% heat inactivated FBS (55-59° C.) for 1 hour to denature complement proteins which would otherwise evoke a cellular immune response resulting in cell lysis, 1% non-essential amino acids, 50 μg/mL gentamicin and 400 μg/mL G418 (vector selected reagent). Colorectal and melanoma cells were maintained in RPMI 1640 supplemented with 10% FBS. MRC-5 cells were cultured in EMEM. Cells were grown in a humidified incubator containing 5% CO2 at 37° C. Cells were sub-cultured when growth exceeded approximately 80% confluence, normally twice weekly. The medium was aspirated from the flask and approximately 0.8 mL trypsin-EDTA 1× solution added. The cells were re-incubated at 37° C. until they visibly detached from the flask. The cell suspension was then re-suspended in 5 mL medium and 0.5-1 mL of the cell suspension was transferred to a new flask (25 cm^2) with 7 mL culture medium. The cells were further incubated at 37° C. incubator. Cells were disposed after passage nearly 30 times in order to minimize phenotypic drift. New batches of cells were taken from liquid nitrogen storage by thawing rapidly (37° C. water bath) and re-suspension in a 25 cm^2 flask with 10 mL of culture medium. Two passages were allowed to resume normal growth. For long-term maintenance, viable cells at 60-80% confluence were detached by minimum amount of trypsin/EDTA and re-suspended in sterile filtered freezing medium (95% FBS, 5% DMSO), transferred to sterile cryogenic vials, and frozen overnight at −20° C. followed by −80° C. for 1-2 days and stored in liquid nitrogen for long term storage.
(§2) Most test compounds, including temozolomide, were prepared as stock solution (100 mM) in DMSO and stored at −20° C. for not more than 6 months.
(§3) This assay was first described in Mosmann, T., 1983, “Rapid colorimetric assay for cellular growth and survival: Application to proliferation and cytotoxicity assays”, Journal of Immunological Methods, Vol. 65, Nos. 1-2, pp. 55-63.
(§4) Glioma cell lines, SNB19 and U373, both MGMT transfected (i.e., SNB19M and U373M) and vector controls (i.e., SNB19V and U373V); colorectal carcinoma cell lines, HCT116, HT29, and DLD1; melanoma cell line, SKMEL-28; breast cell line, MCF-7; and normal human fetal lung fibroblast cell line, MRC-5; were harvested at 60-80% confluence—during the logarithmic phase of growth.
(§5) Following harvesting, cells in suspension were gently syringed through a 23 gauge needle to obtain a near-single cell suspension. The desired cell seeding densities were used and added into 96-well plates in 180 μL culture medium if only one test compound was to be added, or 160 μL if two test compounds were to be added in combination, which were allowed to attach at 37° C. (5% CO2) overnight. For the 7 day assay, the cell seeding density for different cell lines was as follows: SNB19V, SNB19M: 650 cells/well; U373V, U373M: 650 cells/well; SNB19VR, U373VR: 650 cells/well; HCT116, DLD-1, SKMEL-28, MRC-5, MCF-7: 400 cells/well.
(§6) The two peripheral lanes were used as blank wells (cell free) and filled with 200 μL of medium in order to minimise medium evaporation from the plate. A separate time zero (T0) plate was set up alongside other plates. Serial dilutions in tissue culture medium of a 100 mM stock of test compound in DMSO were prepared immediately before each assay to ten times the final concentrations required, and then 20 μL was added to each well (200 μL total media per well) to achieve final concentrations of 0.5 μM, 1 μM, 5 μM, 10 μM, 50 μM, 100 μM, 500 μM, and 1000 μM. A minimum of four wells received the same test compound concentration. […]

[2] = test system: Colon HT29 (MMR proficient); settings: Homo sapiens, HT-29, 168 h, Colon HT29 (MMR proficient); 7-day MTT; single determinations; read-out: GI50
Protocol: as §1, §2, §3, §4, §5, §6

[3] = test system: Melanoma SKMEL-28 (MMR proficient); settings: Homo sapiens, SK-MEL-28, 168 h, Melanoma SKMEL-28 (MMR proficient); 7-day MTT; single determinations; read-out: GI50
Protocol: as §1, §2, §3, §4, §5, §6

Glioma U373M (MGMT+) = settings: Glioma U373M (MGMT+)
Protocol: as §1, with “Glioma cells were routinely cultured in Costar tissue culture flasks in RPMI 1640 liquid medium (containing 0.3 g/L L-glutamine and 2 g/L sodium bicarbonate) supplemented with 10% heat inactivated FBS (55-59° C.) for 1 hour to denature complement proteins which would otherwise evoke a cellular immune response resulting in cell lysis, 1% non-essential amino acids, 50 μg/mL gentamicin and 400 μg/mL G418 (vector selected reagent). Colorectal and melanoma cells were maintained in RPMI 1640 supplemented with 10% FBS.” left out
as §2, §4, §5
(§7) The two peripheral lanes were used as blank wells (cell free) and filled with 200 μL of medium in order to minimise medium evaporation from the plate. A separate time zero (T0) plate was set up alongside other plates. Serial dilutions in tissue culture medium of a 100 mM stock of test compound in DMSO were prepared immediately before each assay to ten times the final concentrations required, and then 20 μL was added to each well (200 μL total media per well) to achieve final concentrations of 0.5 μM, 1 μM, 5 μM, 10 μM, 50 μM, 100 μM, 500 μM, and 1000 μM. A minimum of four wells received the same test compound concentration. To control wells, including those in the T0 plate, 20 μL of medium was added. […] A separate plate treated in the same way, but free of test compound, was used as a measure of cell viability at the time of drug addition (day 0).
(§8) After incubation at 37° C., 5% CO2 for 7 days (or immediately for the day 0 plate), cell viability was quantified using the MTT assay. 50 μL of sterile filtered MIT (3-(4,5-dimethylthiazol-2-yl)-2,5-diphenyltetrazolium bromide) (2 mg/mL in phosphate buffered saline) were added to each well (final concentration 0.4 mg/mL) and the plates were re-incubated for 4 hours to allow metabolic conversion of MTT by dehydrogenases in viable cells to insoluble formazan crystals.
(§9) The intensity of absorbance is directly proportional to cell viability.

Glioma SNB19M (MGMT+) = settings: Glioma SNB19M (MGMT+)
Protocol: as §1, with “Glioma cells were routinely cultured in Costar tissue culture flasks in RPMI 1640 liquid medium (containing 0.3 g/L L-glutamine and 2 g/L sodium bicarbonate) supplemented with 10% heat inactivated FBS (55-59° C.) for 1 hour to denature complement proteins which would otherwise evoke a cellular immune response resulting in cell lysis, 1% non-essential amino acids, 50 μg/mL gentamicin and 400 μg/mL G418 (vector selected reagent). Colorectal and melanoma cells were maintained in RPMI 1640 supplemented with 10% FBS.” left out
as §2, §4, §5, §7, §8, §9

Glioma SNB19V (MGMT−) = settings: Glioma SNB19V (MGMT−)
Protocol: as §1, with “Glioma cells were routinely cultured in Costar tissue culture flasks in RPMI 1640 liquid medium (containing 0.3 g/L L-glutamine and 2 g/L sodium bicarbonate) supplemented with 10% heat inactivated FBS (55-59° C.) for 1 hour to denature complement proteins which would otherwise evoke a cellular immune response resulting in cell lysis, 1% non-essential amino acids, 50 μg/mL gentamicin and 400 μg/mL G418 (vector selected reagent). Colorectal and melanoma cells were maintained in RPMI 1640 supplemented with 10% FBS.” left out
as §2, §4, §5, §7, §8, §9

Glioma U373V (MGMT low) = settings: Glioma U373V (MGMT low)
Protocol: as §1, with “Glioma cells were routinely cultured in Costar tissue culture flasks in RPMI 1640 liquid medium (containing 0.3 g/L L-glutamine and 2 g/L sodium bicarbonate) supplemented with 10% heat inactivated FBS (55-59° C.) for 1 hour to denature complement proteins which would otherwise evoke a cellular immune response resulting in cell lysis, 1% non-essential amino acids, 50 μg/mL gentamicin and 400 μg/mL G418 (vector selected reagent). Colorectal and melanoma cells were maintained in RPMI 1640 supplemented with 10% FBS.” left out
as §2, §4, §5, §7, §8, §9

[4] = 168 h, 7-day MTT, single determinations, read-out: GI50
[5] = 7-day MTT, single determinations, read-out: GI50

SMILES	GI50 (Glioma U373M (MGMT+); [4])	GI50 (Glioma U373M (MGMT+); [5])	GI50 (Glioma SNB19M (MGMT+); [4])	GI50 (Glioma SNB19M (MGMT+); [5])	GI50 (Glioma SNB19V (MGMT−); [4])	GI50 (Glioma SNB19V (MGMT−); [5])	GI50 (Glioma U373V (MGMT low); [4])	GI50 (Glioma U373V (MGMT low); [5])	further results
COc1cc(Cn2nnc3c(C(N)=O)ncn3c2=O)cc(OC)c1OC [AA-002, 4-Oxo-3-(3,4,5-trimethoxybenzyl)-3,4-dihydroimidazo[5,1-d][1,2,3,5]tetrazine-8-carboxamide]									GI50 [1]: 393 µM; GI50 [2]: 128 µM; GI50 [3]: 293 µM
NC(=O)c1ncn2c(=O)n(CCO)nnc12 [NN-002, 3-(2-Hydroxyethyl)-4-oxo-3,4-dihydroimidazo[5,1-d][1,2,3,5]tetrazine-8-carboxamide]									GI50 (Glioma U373M (MGMT+)): 248 µM and 398 µM; GI50 (Glioma SNB19M (MGMT+)): 396 µM and 437 µM; GI50 (Glioma SNB19V (MGMT−)): 200 µM and 210 µM; GI50 (Glioma U373V (MGMT low)): 209 µM and 368 µM
NC(=O)c1ncn2c(=O)n(Cc3cccs3)nnc12 [CC-002, 4-oxo-3-(thiophen-2-ylmethyl)-3,4-dihydroimidazo[5,1-d][1,2,3,5]tetrazine-8-carboxamide]	96.8 µM	52.2 µM	63.6 µM	54.7 µM	76.7 µM	52 µM	149 µM	81.4 µM	
NC(=O)c1ncn2c(=O)n(CC(=O)N3CCOCC3)nnc12 [JJ-005, N-(8-Carbamoyl-oxoimidazo[5,1-d][1,2,3,5]tetrazin-3(4H)-yl)ethanoyl morpholine]	90.4 µM	173 µM	119 µM	84.9 µM	70.3 µM	52.4 µM	195 µM	291 µM	
NC(=O)c1ncn2c(=O)n(C3CCCC3)nnc12 [FF-001, 3-Cyclopentyl-8-carbamoylimidazotetrazin-4-one]	228 µM	204 µM	292 µM	238 µM	318 µM	266 µM	169 µM	163 µM	
NC(=O)c1ncn2c(=O)n(C3CC3)nnc12 [FF-002, 3-Cyclopropyl-8-carbamoylimidazotetrazin-4-one]	369 µM	346 µM and 367 µM	593 µM	637 µM and 418 µM	516 µM	376 µM and 392 µM	293 µM	386 µM and 241 µM	
CC(C)n1nnc2c(C(N)=O)ncn2c1=O [PP-001, 3-Isopropyl-8-carbamoylimidazotetrazin-4-one]									GI50 (Glioma U373M (MGMT+); read-out: GI50): 427 µM and 657 µM; GI50 (Glioma SNB19M (MGMT+); read-out: GI50): > 1000 µM and 753 µM; GI50 (Glioma SNB19V (MGMT−); read-out: GI50): > 1000 µM; GI50 (Glioma U373V (MGMT low); read-out: GI50): 387 µM and 580 µM
NC(=O)c1ncn2c(=O)n(CC3CCCC3)nnc12 [GG-002, 3-(Cyclopentyl)methyl-8-carbamoylimidazotetrazin-4-one]	642 µM	728 µM	796 µM	602 µM	888 µM	751 µM	790 µM	> 1000 µM	
CC(C)(C)[Si](C)(C)OCCn1nnc2c(C(N)=O)ncn2c1=O [NN-001, 3-(2-(tert-Butyldimethylsilyloxy)ethyl)-4-oxo-3,4-dihydroimidazo[5,1-d][1,2,3,5]tetrazine-8-carboxamide]									GI50 (Glioma U373M (MGMT+)): 98.2 µM and 68.3 µM; GI50 (Glioma SNB19M (MGMT+)): 182 µM and 263 µM; GI50 (Glioma SNB19V (MGMT−)): 128 µM and 97 µM; GI50 (Glioma U373V (MGMT low)): 172 µM and 229 µM
CC(=O)OCn1nnc2c(C(N)=O)ncn2c1=O [LL-005]	45.6 µM	33.3 µM	46 µM	34.7 µM	56.6 µM	40.1 µM	15.7 µM	8 µM	
COc1ccc(Cn2nnc3c(C(N)=O)ncn3c2=O)cc1OC [AA-005, 3-(3,4-dimethoxybenzyl)-4-oxo-3,4-dihydroimidazo[5,1-d][1,2,3,5]tetrazine-8-carboxamide]	301 µM	224 µM	282 µM	232 µM	218 µM	114 µM	197 µM	259 µM	

— patent US8450479B2, “3-substituted-4-oxo-3,4-dihydro-imidazo[5,1-d][1,2,3,5-tetrazine-8-carboxylic acid amides and their use” (Pharminox Limited, priority 2007, dated 2013)
